Several values for one entry are separate records, joined by “and”; a condition that tells them apart may be missing. Equal values may be shown once. Entries after “also recorded” stand apart in the source; their conditions may differ.
Key:
protein carbonyl = test: Measurement of protein carbonyl in gastric tissue homogenate; format: in vivo; conditions: 50 mg/kg bw, ulcerated mice
Experimental: Protein carbonyl groups are considered as biomarkers of oxidative stress. Protein oxidation was measured as carbonyl content in the low speed supernatant of the gastric tissue homogenate. The stomach from control, stress ulcerated, and compound 5 treated (50 mg/kg bw) mice were homogenized in 50 mM sodium phosphate buffer pH 7.4 in a Potter-Elvehjem glass homogenizer for 2 min to get 20% homogenate. After centrifugation at 600 g for 10 min, the proteins from 1.0 mL of the supernatant were precipitated with 10% trichloroacetic acid and allowed to react with 0.5 mL of 10 mM 2,4-dinitrophenyl hydrazine for 1 h. After precipitation with 20% trichloroacetic acid, proteins were washed thrice with a mixture of ethanol-ethyl acetate (1:1), dissolved in 1.0 mL of a solution containing 6 M guanidine HCl in 20 mM potassium phosphate adjusted to pH 2.3 with trifluroacetic acid, and centrifuged. The absorbance of the supernatant was read at 362 nm for carbonyl content (E=22,000/M/cm).
The fundic stomach homogenate was used for measurement of protein carbonyl formation as nmol/mg protein.

[1] = tested on: indomethacin-induced acute gastric ulcers; test: Protection studies of gastric ulceration in vivo (indomethacin-induced acute gastric ulcer, ulcer index); design: species or system Balb/c mice; conditions: for inhibition in ulcer index: 4 h
Experimental: Animal experiments were carried out using Balb/c mice (20-25 g). Animals were anesthetized with ketamine (12 mg/kg b.w.) prior to cervical dislocation. Control and experimental animals were fasted for 6 hr with free access to water.
Balb/c mice (20-25 g) bred in-house with free access to food and water was used for all experiments. Experiments were designed to minimize animal suffering and to use the minimum number associated with valid statistical evaluation. Animals were anesthetized with ketamine (12 mg/kg b.w.) followed by cervical dislocation. Animal experiments were carried out following the guidelines of animal ethics committee of the institute. Control and experimental animals were fasted for 6 h with free access to water.
Before ulcer induction, animals of both control and experimental groups were kept separately in standard controlled conditions. Acute gastric ulcers were induced by oral administration of indomethacin at a dose of 80 mg/kg b.w. The control group received the vehicle only (olive oil), whereas the experimental group received indomethacin for gastric ulceration. After 4 h, the animals were sacrificed and gastric lesions in the fundic stomach were scored and expressed as obtained by counting the number of red bands/dots as follows: 0=no pathology; 1=a small pinhead ulcer spot; and 2-5=a band like lesion of 2-5 mm length. Total score become ˜50 when ulcer is severe. The sum of the total scores as divided by the number of animals was expressed as the mean ulcer index. Formulations were administered orally 30 min prior to indomethacin treatment to check the gastroprotective effect. Among all the chemical compositions of 3-indolyl furanoids synthesized (table 1), compounds 1, 2, 5, 8, 9 and 12 were tested for prevention studies against gastric inflammation in vivo.

purified MMP-9 = target: T1, purified MMP-9 (Homo sapiens, UniProt P14780); test: IC50 on purified MMP-9 using gelatin zymography; format: biochemical, human (IPF patients); conditions: purified MMP-9, gelatin zymography, three independent experiments
T1 construct: from tissue; host or cells: bronchoalveolar lavage fluid of IPF patients
T1 sequence (P14780 94-707): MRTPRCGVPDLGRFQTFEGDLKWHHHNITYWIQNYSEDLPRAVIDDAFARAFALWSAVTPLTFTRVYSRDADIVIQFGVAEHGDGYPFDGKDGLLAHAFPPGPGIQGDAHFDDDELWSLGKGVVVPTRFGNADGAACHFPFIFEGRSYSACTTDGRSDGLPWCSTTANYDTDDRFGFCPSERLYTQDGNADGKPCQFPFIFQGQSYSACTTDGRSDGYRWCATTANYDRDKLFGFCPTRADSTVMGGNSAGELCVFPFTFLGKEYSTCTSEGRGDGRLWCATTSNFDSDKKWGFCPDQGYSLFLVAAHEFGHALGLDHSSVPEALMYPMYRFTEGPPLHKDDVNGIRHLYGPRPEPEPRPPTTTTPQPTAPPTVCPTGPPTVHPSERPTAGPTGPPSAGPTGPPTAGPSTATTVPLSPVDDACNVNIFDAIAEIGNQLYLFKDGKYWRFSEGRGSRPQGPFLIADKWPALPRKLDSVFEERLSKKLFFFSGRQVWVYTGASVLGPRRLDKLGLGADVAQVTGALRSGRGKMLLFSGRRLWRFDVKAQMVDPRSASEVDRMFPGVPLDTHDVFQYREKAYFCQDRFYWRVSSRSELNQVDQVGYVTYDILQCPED
Experimental: MMP-9 was purified from the bronchoalveolar lavage fluid (BALF) of idiopathic pulmonary fibrosis (IPF) patients as these fluids contain enormous amounts of MMP-9. All purification procedures were carried out at 4° C. Briefly, BALF containing protease inhibitor cocktail (EDTA Free) were centrifuged at 12,000 g for 15 min, and the supernatant was collected and processed for protein purification. […] The enzyme was eluted with 7% dimethyl sulfoxide diluted in the same buffer, and the fractions containing enzyme protein as determined by absorbance at 280 nm were pooled and immediately dialyzed against equilibrating buffer at 4° C. They were then concentrated using Amicon Ultra-15 centrifugal filter devices and protein concentration was determined by Bradford assay. These samples were screened to confirm the presence of MMP-9 and absence of MMP-2 by gelatin zymography and stored at −70° C.
The inventors address the IC50 value of compound 5 towards MMP-9 binding. To evaluate the IC50 value of compound 5 on MMP-9 activity, equal amount of purified MMP-9 was incubated with various concentrations of compound 5 followed by electrophoresis in 8% SDS-PAGE containing 1 mg/mL gelatin under nonreducing conditions.

[2] = tested on: gastric epithelium and submucosa; test: Haematoxylin-eosin staining of gastric tissue sections; format: in vivo; conditions: 50 mg/kg body weight, indomethacin ulcerated mice
Source text: To understand the fine information about the physical condition (the level of damage and/or intactness) of cells tissues under observation, different tissue samples were fixed in 10% formalin and embedded in paraffin. Tissue sections were deparaffinized with xylene and rehydrated with descending alcohol series. The sections were cut using microtome, and stained with hematoxylin and eosin, or subjected to Terminal deoxynucleotidyl transferase-mediated dUTP Nick End Labeling (TUNEL) assay by using a in situ apoptosis detection kit. Fixation, permeabilization, and staining were carried out in exact parallel to ensure comparative significance among normal, ulcerated and compound 5 treated groups. […] Images at 10× and 40× magnification were captured using Camedia software (E-20P 5.0 Megapixel) and processed under Adobe Photoshop version 7.0 (FIG. 1B).
Tissue sections were stained with hematoxylin and eosin stain. Fixation, permeabilization, and staining were carried out in parallel in normal, ulcerated and compound 5 treated groups to ensure comparative significance among different treatment. TUNEL assay is used for detection and quantification of apoptosis in gastric tissues, based on labelling of DNA strand breaks. Terminal deoxynucleotidyl transferase-mediated dUTP Nick End Labeling (TUNEL) assay was performed by using an in situ apoptosis detection kit. […]

Myeloperoxidase (MPO) = test: Myeloperoxidase assay in gastric tissue; format: in vivo; conditions: ulcerated mice, gastric tissue homogenate
Experimental: To understand the anti-inflammatory activity of compound 5, the inventors performed Myeloperoxidase (MPO) Assay in mouse of control, diseased and treated. Myeloperoxidase (MPO) activity in the mice gastric tissues was measured by calorimetric assay using guaiacol as the substrate. Briefly, gastric tissue homogenate prepared in 5 mM phosphate buffer was added to 1 mL of reaction buffer containing 0.5 mM H2O2 and 0.4 M guaiacol in 50 mM phosphate buffer, pH 7.4. The changes in the optical density per minute for tetraguaiacol were measured at 470 nm in a Shimadzu spectrophotometer. The results were expressed in units/gram gastric tissue (ε=26.6/mM/cm).
Myeloperoxidase (MPO) activity in the mouse gastric tissue homogenate was assayed colorimetrically using guaiacol and H2O2.

Q: How did the Protein carbonylation (protein carbonyl) turn out when `COc1cccc2[nH]cc(-c3cc(-c4ccccc4)oc3-c3ccccc3)c12` [compound 5, 4-methoxy-3-(2,5-diphenylfuran-3-yl)-1H-indole] was run?
A: 1.58±0.18 nmol/mg protein

Q: What about the Protein carbonylation (protein carbonyl; listed as Compound 5) of the same compound?
A: 1.58 ± 0.18 nmol/mg protein

Q: And the “inhibition in ulcer index” value ([1]; 10 mg/kg bw oral prior to indomethacin 80 mg/kg)?
A: 40%

Q: And the “inhibition in ulcer index” value ([1]; 25 mg/kg bw oral prior to indomethacin 80 mg/kg)?
A: 80%

Q: And the inhibition in vivo at 50 mg/kg ([1]; Mus musculus, 50 mg/kg body weight oral in olive oil, indomethacin 80 mg/kg, scored after 4 h, Balb/c mice)?
A: 95%

Q: What about the IC50 (purified MMP-9) of the same compound?
A: ~50 µM and 50 µM

Q: What about the “gastric injury, haematoxylin-eosin staining” value [2] of the same compound?
A: minimum injury and intact epithelial layer; also recorded: prevents indomethacin induced gastric injury

Q: And the Myeloperoxidase (Myeloperoxidase (MPO))?
A: 9.13±0.33 units/gram tissue

Q: What about the Myeloperoxidase (Myeloperoxidase (MPO); listed as Compound 5) of the same compound?
A: 9.13 ± 0.33 units/gram tissue

From patent US10590116B2, “3-indolyl furanoids as inhibitors of matrix metalloproteinase-9 for prevention of gastric ulcer and other inflammatory diseases” (Council of Scientific & Industrial Research, priority 2017, dated 2020)
